Consider 17 molecules from ChEMBL document CHEMBL4342402, “An insight into medicinal chemistry of anticancer quinoxalines” (Bioorg Med Chem, 2019).

Series [1] is described as follows: Inhibition of phosphoinositide 3-Kinase (unknown origin). On the set-up: species or system Homo sapiens.
Series [2] has as its target Epidermal growth factor receptor (Homo sapiens, UniProt P00533). Put plainly: Inhibition of EGFR in human A431 cells incubated for 2 hrs followed by EGF stimulation and measured after 10 mins by immunoblot assay. Type of series: cell-based. A general note: In western blotting, separated proteins are transferred to a membrane and probed.
Series [3] has as its target T1, Receptor-type tyrosine-protein kinase FLT3 (Homo sapiens, UniProt P36888).
T1 sequence (P36888 whole entry): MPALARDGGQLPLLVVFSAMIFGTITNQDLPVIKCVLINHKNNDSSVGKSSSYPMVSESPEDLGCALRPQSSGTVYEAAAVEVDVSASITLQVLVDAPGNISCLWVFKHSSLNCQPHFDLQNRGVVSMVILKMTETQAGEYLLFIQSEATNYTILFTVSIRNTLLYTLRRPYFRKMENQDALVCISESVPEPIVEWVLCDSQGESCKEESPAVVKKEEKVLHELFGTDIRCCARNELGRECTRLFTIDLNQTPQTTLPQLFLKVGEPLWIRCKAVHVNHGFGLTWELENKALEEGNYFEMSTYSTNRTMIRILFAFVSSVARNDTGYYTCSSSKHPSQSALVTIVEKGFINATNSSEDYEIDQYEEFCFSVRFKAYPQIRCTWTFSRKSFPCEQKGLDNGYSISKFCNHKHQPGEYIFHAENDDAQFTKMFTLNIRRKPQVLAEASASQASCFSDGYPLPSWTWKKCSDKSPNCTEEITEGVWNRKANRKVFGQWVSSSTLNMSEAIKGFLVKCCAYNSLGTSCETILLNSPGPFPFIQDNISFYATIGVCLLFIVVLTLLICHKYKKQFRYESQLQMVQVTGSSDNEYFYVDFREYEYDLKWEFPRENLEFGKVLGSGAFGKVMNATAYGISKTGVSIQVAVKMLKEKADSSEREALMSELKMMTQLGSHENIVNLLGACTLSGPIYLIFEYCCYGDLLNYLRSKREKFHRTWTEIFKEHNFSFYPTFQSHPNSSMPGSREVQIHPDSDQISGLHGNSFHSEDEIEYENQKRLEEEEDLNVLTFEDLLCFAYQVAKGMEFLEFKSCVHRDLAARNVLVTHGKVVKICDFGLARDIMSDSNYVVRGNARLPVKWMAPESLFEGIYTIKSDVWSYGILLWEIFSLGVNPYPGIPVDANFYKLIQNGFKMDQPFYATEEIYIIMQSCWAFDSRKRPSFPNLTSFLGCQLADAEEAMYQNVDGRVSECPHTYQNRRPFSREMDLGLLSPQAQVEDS
Put plainly: Inhibition of human FLT3 expressed in mouse BAF3 cells assessed as reduction in […] incubated for 2 hrs followed by FLT3 ligand stimulation by immunoblot analysis. It counts as cell-based.

The target in series [4] is Insulin-like growth factor 1 receptor (Homo sapiens, UniProt P08069). Put plainly: Inhibition of IGFR1 (unknown origin) using poly (Glu,Tyr) 4:1 as substrate.
The target in series [5] is Platelet-derived growth factor receptor beta (Homo sapiens, UniProt P09619). The series can be described thus: Inhibition of human PDGFR beta.
In series [6] the target is Proto-oncogene tyrosine-protein kinase Src (Mus musculus, UniProt P05480). The series can be described thus: Inhibition of SRC in transformed mouse NIH3T3 cells by SDS-PAGE based immunoblot assay. Type of series: cell-based.
Series [7] has as its target Mast/stem cell growth factor receptor Kit (Homo sapiens, UniProt P10721). The series can be described thus: Inhibition of c-KIT in human M-07e cells assessed as reduction in […] incubated for 2 hrs followed by KIT ligand stimulation by immunoblotting analysis. Type of series: cell-based.
Series [8] can be described thus: Inhibition of VEGFR (unknown origin). Also noted: species or system Homo sapiens.
Series [9] can be described thus: Inhibition of PDGFR in mouse NIH/3T3 cells assessed as reduction in tyrosine phosphorylation incubated for 2 hrs by SDS-PAGE based immunoblot assay. It counts as cell-based. To be noted: NIH3T3, 2 h.
The subject of the next series is HCT-15. The series can be described thus: Antiproliferative activity against human HCT15 cells. Type of series: functional, cell-based.
The next series relates to SK-OV-3. The series can be described thus: Antiproliferative activity against human SKOV3 cells. It counts as functional, cell-based.
The next series deals with BE. The series can be described thus: Antiangiogenic activity in human BE cells after 24 hrs by MTT assay. It counts as functional, cell-based. On the technique in general: Tetrazolium dyes change colour on reduction, which living cells bring about.
A further series concerns U-87 MG. Put plainly: Antiangiogenic activity in human U87cells after 24 hrs by MTT assay. It counts as functional, cell-based, U-87MG ATCC.
In the next series the test system is HUVEC. The series can be described thus: Antiangiogenic activity in HUVEC after 24 hrs by MTT assay. It counts as functional, cell-based. To be noted: Homo sapiens.
Another series relates to MCF7. Put plainly: Cytotoxicity against human MCF7 cells after 48 hrs by MTT assay. Type of series: functional, cell-based. To be noted: MCF7, 48 h.
The nature of series [10]: Half life in guinea pig plasma. It counts as ADME, cell-free, Cavia porcellus.
A short description of series [11]: Half life in rat plasma. It counts as ADME, cell-free.
Series [12] in a line: Half life in mouse plasma. It counts as ADME, cell-free.
In series [13] the test system is SGC-7901. The series can be described thus: Cytotoxicity against human SGC7901 cells after 72 hrs in presence of 3% O2 by MTT assay. Type of series: functional, cell-based. To be noted: SGC-7901, 72 h.
For series [14], the system named is SMMC-7721. The series can be described thus: Cytotoxicity against human SMMC7721 cells after 72 hrs in presence of 20% O2 by MTT assay. To be noted: SMMC-7721, 72 h. Type of series: functional, cell-based.
For series [15], the system named is SMMC-7721. Put plainly: Cytotoxicity against human SMMC7721 cells after 72 hrs in presence of 3% O2 by MTT assay. Type of series: functional, cell-based. To be noted: SMMC-7721, 72 h.
Series [16] relates to PC-3. The series can be described thus: Cytotoxicity against human PC3 cells after 72 hrs in presence of 20% O2 by MTT assay. Type of series: functional, cell-based. To be noted: PC-3, 72 h.
Series [17] concerns K562. Put plainly: Cytotoxicity against human K562 cells after 72 hrs in presence of 3% O2 by MTT assay. It counts as functional, cell-based. Conditions: K562, 72 h.
Series [18] deals with SGC-7901. The series can be described thus: Cytotoxicity against human SGC7901 cells after 72 hrs in presence of 20% O2 by MTT assay. It counts as functional, cell-based. To be noted: SGC-7901, 72 h.
The test system of series [19] is PC-3. The series can be described thus: Cytotoxicity against human PC3 cells after 72 hrs in presence of 3% O2 by MTT assay. It counts as functional, cell-based. To be noted: PC-3, 72 h.
For series [20], the system named is ECa-109 cell line. The series can be described thus: Cytotoxicity against human ECA109 cells after 72 hrs in presence of 3% O2 by MTT assay. Type of series: functional, cell-based. Conditions: ECa-109, 72 h.
Series [21] relates to ECa-109 cell line. The series can be described thus: Cytotoxicity against human ECA109 cells after 72 hrs in presence of 20% O2 by MTT assay. Type of series: functional, cell-based. To be noted: ECa-109, 72 h.
The test system of series [22] is K562. The series can be described thus: Cytotoxicity against human K562 cells after 72 hrs in presence of 20% O2 by MTT assay. To be noted: K562, 72 h. It counts as functional, cell-based.
The nature of series [23]: Acute toxicity in po dosed Wistar rat measured up to 14 days. Type of series: organism-based. To be noted: in vivo.
The target of series [24] is Cyclin-dependent kinase 5/CDK5 activator 1 (Homo sapiens, UniProt Q00535). The series can be described thus: Inhibition of CDK5/p25 (unknown origin) expressed in Escherichia coli using histone as substrate in presence of [gamma32P]ATP after 10 mins by scintillation counting method.
Series [25] is described as follows: Inhibition of Marthasterias glacialis oocyte CDK1/cyclin B using histone as substrate in presence of [gamma32P]ATP after 10 mins by scintillation counting method.

The structures appear in SMILES notation.

Sequence of Cyclin-dependent kinase 5/CDK5 activator 1 (Q00535 whole entry): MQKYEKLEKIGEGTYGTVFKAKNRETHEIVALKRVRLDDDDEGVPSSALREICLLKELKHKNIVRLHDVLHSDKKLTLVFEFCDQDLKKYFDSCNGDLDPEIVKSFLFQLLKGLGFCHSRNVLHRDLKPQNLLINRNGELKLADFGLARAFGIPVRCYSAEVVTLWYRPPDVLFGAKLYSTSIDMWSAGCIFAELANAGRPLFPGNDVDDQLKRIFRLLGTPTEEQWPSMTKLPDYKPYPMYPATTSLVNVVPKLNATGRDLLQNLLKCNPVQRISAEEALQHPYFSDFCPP
Sequence of Cyclin-dependent kinase 5/CDK5 activator 1 (Q15078 whole entry, further chain): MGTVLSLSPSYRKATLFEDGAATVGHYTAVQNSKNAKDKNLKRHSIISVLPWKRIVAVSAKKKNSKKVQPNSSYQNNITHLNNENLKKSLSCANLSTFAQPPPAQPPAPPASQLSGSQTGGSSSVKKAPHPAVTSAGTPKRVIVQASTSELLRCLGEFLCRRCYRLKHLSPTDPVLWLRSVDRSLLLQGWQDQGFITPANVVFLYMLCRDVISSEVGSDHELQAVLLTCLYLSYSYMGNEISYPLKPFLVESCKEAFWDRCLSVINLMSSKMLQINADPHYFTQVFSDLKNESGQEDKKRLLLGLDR
Sequence of Proto-oncogene tyrosine-protein kinase Src (P05480 2-535 limits assumed): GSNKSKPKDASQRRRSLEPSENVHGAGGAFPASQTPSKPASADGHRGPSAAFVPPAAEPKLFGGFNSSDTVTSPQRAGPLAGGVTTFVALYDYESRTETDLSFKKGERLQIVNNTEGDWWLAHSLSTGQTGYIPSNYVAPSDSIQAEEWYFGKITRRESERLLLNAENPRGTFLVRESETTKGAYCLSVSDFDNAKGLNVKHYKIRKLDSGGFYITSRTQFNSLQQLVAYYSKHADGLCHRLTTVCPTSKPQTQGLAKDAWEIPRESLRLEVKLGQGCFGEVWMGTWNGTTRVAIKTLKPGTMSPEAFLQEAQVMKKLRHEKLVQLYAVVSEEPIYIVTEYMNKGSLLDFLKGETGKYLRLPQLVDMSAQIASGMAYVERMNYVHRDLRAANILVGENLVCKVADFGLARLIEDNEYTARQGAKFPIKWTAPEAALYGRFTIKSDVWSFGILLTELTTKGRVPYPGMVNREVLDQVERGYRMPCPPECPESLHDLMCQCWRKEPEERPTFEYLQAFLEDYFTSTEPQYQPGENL
Sequence of Insulin-like growth factor 1 receptor (P08069 31-736 limits assumed): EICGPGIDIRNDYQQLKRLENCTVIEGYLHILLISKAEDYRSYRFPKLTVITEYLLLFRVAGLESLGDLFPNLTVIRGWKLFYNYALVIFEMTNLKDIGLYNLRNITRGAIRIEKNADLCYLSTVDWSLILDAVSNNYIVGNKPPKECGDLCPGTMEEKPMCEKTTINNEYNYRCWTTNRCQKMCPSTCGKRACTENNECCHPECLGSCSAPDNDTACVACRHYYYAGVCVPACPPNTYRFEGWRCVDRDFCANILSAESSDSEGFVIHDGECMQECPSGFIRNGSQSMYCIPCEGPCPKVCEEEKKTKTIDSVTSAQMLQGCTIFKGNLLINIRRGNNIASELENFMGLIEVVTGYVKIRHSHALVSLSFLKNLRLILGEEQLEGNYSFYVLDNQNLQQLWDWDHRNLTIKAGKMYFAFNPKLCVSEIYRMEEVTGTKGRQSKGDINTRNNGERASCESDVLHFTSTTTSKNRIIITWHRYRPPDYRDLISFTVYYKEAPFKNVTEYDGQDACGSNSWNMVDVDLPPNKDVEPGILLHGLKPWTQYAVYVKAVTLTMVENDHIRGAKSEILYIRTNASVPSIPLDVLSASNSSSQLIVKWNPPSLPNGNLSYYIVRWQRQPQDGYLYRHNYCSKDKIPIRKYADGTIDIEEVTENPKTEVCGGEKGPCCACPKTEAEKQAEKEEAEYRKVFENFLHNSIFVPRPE
Sequence of Insulin-like growth factor 1 receptor (P08069 741-1367 limits assumed): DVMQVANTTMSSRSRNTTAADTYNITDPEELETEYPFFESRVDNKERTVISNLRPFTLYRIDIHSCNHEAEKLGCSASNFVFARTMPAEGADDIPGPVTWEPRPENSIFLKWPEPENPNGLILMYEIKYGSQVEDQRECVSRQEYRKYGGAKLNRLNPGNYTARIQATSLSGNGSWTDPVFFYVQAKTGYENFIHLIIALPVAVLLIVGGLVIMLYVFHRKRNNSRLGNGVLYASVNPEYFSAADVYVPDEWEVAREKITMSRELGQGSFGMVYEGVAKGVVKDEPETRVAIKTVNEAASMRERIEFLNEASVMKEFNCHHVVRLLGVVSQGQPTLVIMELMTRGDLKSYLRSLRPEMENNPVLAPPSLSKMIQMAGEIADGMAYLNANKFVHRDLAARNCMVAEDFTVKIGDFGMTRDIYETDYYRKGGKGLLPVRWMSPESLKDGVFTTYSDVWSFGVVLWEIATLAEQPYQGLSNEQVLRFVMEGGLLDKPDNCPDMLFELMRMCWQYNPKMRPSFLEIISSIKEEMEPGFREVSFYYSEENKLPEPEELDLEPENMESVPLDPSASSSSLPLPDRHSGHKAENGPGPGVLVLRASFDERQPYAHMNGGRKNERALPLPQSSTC
Sequence of Epidermal growth factor receptor (P00533 whole entry): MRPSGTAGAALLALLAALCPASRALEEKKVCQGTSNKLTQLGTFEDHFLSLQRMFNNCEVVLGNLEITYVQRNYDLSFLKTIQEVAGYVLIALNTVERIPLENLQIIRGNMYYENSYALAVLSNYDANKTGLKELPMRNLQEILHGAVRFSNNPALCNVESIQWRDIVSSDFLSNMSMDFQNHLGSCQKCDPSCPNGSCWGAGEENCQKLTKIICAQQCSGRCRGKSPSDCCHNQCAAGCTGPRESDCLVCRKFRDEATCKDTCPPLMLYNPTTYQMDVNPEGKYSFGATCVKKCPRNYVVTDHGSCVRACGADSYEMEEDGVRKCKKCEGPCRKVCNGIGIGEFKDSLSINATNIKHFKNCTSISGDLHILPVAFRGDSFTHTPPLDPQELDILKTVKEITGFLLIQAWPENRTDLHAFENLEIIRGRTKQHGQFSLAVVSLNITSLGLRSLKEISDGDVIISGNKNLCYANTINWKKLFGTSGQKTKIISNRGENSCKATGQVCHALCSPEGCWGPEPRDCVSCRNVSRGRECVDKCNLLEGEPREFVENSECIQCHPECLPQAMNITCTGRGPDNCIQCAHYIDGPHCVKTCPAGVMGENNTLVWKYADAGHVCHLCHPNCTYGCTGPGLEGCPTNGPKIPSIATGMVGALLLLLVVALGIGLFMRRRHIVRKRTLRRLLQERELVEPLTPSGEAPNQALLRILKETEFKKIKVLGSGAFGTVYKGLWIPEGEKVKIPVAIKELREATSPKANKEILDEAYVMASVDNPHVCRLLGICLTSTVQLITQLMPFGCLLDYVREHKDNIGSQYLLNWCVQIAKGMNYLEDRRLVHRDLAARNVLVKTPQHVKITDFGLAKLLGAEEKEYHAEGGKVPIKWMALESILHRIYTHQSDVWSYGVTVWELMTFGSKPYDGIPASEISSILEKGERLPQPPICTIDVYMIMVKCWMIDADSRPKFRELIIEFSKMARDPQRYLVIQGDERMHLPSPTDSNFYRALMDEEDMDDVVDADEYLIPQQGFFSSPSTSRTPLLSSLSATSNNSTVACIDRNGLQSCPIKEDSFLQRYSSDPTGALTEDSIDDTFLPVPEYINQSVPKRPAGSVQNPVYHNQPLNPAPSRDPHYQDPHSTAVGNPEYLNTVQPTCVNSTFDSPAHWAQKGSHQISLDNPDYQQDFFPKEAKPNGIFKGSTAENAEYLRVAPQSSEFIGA
Sequence of Mast/stem cell growth factor receptor Kit (P10721 whole entry): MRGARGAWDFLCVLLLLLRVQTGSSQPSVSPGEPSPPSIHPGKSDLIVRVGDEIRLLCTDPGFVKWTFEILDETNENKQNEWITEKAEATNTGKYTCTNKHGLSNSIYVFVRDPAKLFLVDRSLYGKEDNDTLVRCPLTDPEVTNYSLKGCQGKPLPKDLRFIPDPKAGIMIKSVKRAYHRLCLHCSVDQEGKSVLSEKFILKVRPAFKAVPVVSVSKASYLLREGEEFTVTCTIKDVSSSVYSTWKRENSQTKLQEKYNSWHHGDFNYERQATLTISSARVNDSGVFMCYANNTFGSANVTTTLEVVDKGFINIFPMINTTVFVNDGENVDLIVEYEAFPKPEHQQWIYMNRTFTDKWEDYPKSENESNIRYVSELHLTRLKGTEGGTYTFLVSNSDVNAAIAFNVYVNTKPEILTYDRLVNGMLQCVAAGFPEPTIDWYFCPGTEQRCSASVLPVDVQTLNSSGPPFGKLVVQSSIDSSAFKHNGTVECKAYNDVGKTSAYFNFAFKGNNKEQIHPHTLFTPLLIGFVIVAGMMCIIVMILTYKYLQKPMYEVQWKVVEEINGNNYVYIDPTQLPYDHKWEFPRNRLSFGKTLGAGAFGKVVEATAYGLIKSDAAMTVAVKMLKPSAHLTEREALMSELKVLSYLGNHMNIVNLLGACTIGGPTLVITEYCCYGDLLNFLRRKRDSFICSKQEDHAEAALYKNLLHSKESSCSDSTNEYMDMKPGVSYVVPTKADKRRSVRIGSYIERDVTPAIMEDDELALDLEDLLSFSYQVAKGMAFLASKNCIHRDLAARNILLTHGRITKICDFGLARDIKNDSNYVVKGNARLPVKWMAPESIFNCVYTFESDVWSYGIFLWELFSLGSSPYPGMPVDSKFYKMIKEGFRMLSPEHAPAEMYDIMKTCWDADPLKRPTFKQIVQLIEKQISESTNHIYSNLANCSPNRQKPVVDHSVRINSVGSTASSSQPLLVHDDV

Usually IC50 stands for the point on the concentration scale where inhibition reaches its midpoint. The molecule `O=S(=O)(c1ccccc1)c1nc2ccccc2nc1N1CCOCC1` came in with an IC50 in series [1] of 0.04 µM.

As for `O=S(=O)(c1ccc(Br)cc1)c1nc2ccccc2nc1N1CCC(O)CC1`, the half-maximal inhibitory concentration (IC50) in [1] turned out to be 0.04 µM.

As for `Cc1nc2cc3nc(-c4cccs4)cnc3cc2n1C`, the concentration for half-maximal inhibition (IC50) in series [2] was greater than 30 µM; in [3], 1 to 3 µM; in series [4], greater than 30 µM; in series [5], 0.09 µM; in series [6], greater than 30 µM; in series [7], 1 to 3 µM. The half-maximal inhibitory concentration (IC50) in series [8] is greater than 30 µM; in series [9], 0.8 µM.

Turning to `CCCCCNCc1ccc2c(c1)C(=O)c1nccnc1C2=O`, the IC50 in the series with HCT-15 was 0.05 µM; in the series on SK-OV-3 it was 0.4 µM.

`Cc1cc2ncc(-c3ccc(O)c(O)c3)nc2cc1C`: the half-maximal inhibitory concentration (IC50) in the series with BE was greater than 50 µM; with U-87 MG, greater than 50 µM; with HUVEC it was 24.7 µM.

In the series on MCF7, `C[n+]1c2ccccc2nc2c1c1cc(F)ccc1n2CCCC[N+]1(C)CCCCC1` had a half-inhibitory concentration (IC50) of 1.94 µM.

As to `C[n+]1c2ccccc2nc2c1c1cc(F)ccc1n2CCCC[N+]1(C)CCCC1`, in the series on MCF7, half-maximal inhibition (IC50) was put at 1.8 µM.

In the series on MCF7, `C[n+]1c2ccccc2nc2c1c1cc(F)ccc1n2CCCCCC[N+]1(C)CCCCC1` had a half-inhibitory concentration (IC50) of 1.6 µM.

Regarding `Cc1cc2ncc(-c3ccc(OCc4ccccc4)c(O)c3)nc2cc1C`, the IC50 is 41 µM in the series on BE, 15.9 µM with U-87 MG and greater than 100 µM in the series on HUVEC.

For the molecule `CC(=O)Oc1ccc(-c2cnc3cc(C)c(C)cc3n2)cc1O`, the IC50 in the series with BE is greater than 50 µM; in the series on U-87 MG, 42.3 µM; with HUVEC, 54.4 µM.

As to `NC(=O)C1CCN(c2nc3ccccc3nc2S(=O)(=O)c2ccc(Br)cc2)CC1`, the IC50 in series [1] was 0.04 µM.

`COc1ccc(-c2cnc3cc(C)c(C)cc3n2)cc1O`: the half-maximal inhibitory concentration (IC50) in the series on BE was greater than 50 µM; in the series with U-87 MG, greater than 50 µM; in the series with HUVEC, greater than 100 µM.

The half-life is how long it takes for the measured level to halve. Consider `CC(C)OC(=O)N1CCN(c2ncc(-c3ccc4nccnc4c3)cc2C#N)CC1`, for which the half-life in series [10] worked out at 4.02 min; in [11] it was 16.7 min; in series [12], 61 min.

With `CCS(=O)(=O)c1c(-c2ccc(Br)cc2)[n+]([O-])c2cc(C)ccc2[n+]1[O-]`, the IC50 in the series on SGC-7901 [13] is 8.88 µM; with SMMC-7721 [14] it was less than 10 µM; in the series on SMMC-7721 [15] it was 3.17 µM; in the series on PC-3 [16], less than 10 µM; with K562 [17], 0.18 µM; with SGC-7901 [18], less than 10 µM. Also, the half-maximal inhibitory concentration (IC50) was 4.98 µM with PC-3 [19], 6.38 µM in the series on ECa-109 cell line [20], less than 10 µM with ECa-109 cell line [21] and less than 10 µM in the series with K562 [22].

Turning to `O=C(c1ccccc1)N1CCN(c2nc3ccccc3nc2S(=O)(=O)c2ccccc2)CC1`, inhibition in series [1] was half-maximal at 0.04 µM (IC50).

By LD50 is commonly meant the dose expected to kill half of the subjects tested. The molecule `CC(=O)c1c(C)[n+]([O-])c2ccccc2[n+]1[O-]` [MEQUINDOX] yielded an LD50 at 336 h in series [23] of 550 mg/kg.

Turning to `Nc1n[nH]c2nc3ccccc3nc12` [QUINOXALINE1], the figures for the IC50 in series [24] and in [25] were 0.4 µM and 0.6 µM, respectively.
